{"source": "patent US10294202B2", "about": "“Pyrrolidinones as herbicides” (FMC Corporation, priority 2013, dated 2019)", "key": {"giant foxtail": {"test_system": "giant foxtail", "assay": "Test A pre-/postemergence herbicide test", "format": "in vivo, Setaria faberii", "conditions": "for pest or weed control at 500 g/ha: 500 g ai/ha", "outline": "(§1)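 Planted in loam–sand blend; treated the same day preemergence by directed soil spray, while separately grown plants at one- to two-leaf stage got postemergence spray. Compared visually with untreated controls after approximately 10 days; 100 means complete control.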"}, "ragweed": {"test_system": "ragweed", "assay": "Test C pre-/postemergence herbicide test", "format": "in vivo, Ambrosia elatior", "conditions": "Postemergence", "outline": "(§2)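 Test compounds, formulated in a surfactant-containing non-phytotoxic solvent blend, are applied to seeded loam/sand soil (preemergence) and to young plants at the 1- to 4-leaf stage in peat-based medium (postemergence). Plants stay 13 to 15 days under greenhouse conditions, then are scored visually relative to controls, 0 = no effect, 100 = complete control.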"}, "wheat": {"test_system": "wheat", "assay": "Test A pre-/postemergence herbicide test", "format": "in vivo, Triticum aestivum", "conditions": "for plant injury at 500 g/ha: 500 g ai/ha", "outline": "as §1"}, "oilseed rape": {"test_system": "oilseed rape", "assay": "Test C pre-/postemergence herbicide test", "format": "in vivo, Brassica napus", "outline": "as §2"}, "blackgrass": {"test_system": "blackgrass", "assay": "Test C pre-/postemergence herbicide test", "format": "in vivo, Alopecurus myosuroides", "outline": "as §2"}, "corn [1]": {"test_system": "corn", "assay": "Test A pre-/postemergence herbicide test", "format": "in vivo, Zea mays", "conditions": "for Corn plant response rating (crop injury, 0 = no effect, 100 = complete kill) at 500 g/ha: 500 g ai/ha", "outline": "as §1"}, "sedge, umbrella": {"test_system": "sedge, umbrella", "assay": "Test B flooded paddy test", "format": "in vivo, Cyperus difformis", "conditions": "250 g ai/ha, Flood; scale of 0 to 100 where 0 is no effect and 100 is complete control", "outline": "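Scoring: visual, compared with untreated controls, 0 = no effect through 100 = complete control, taken 13 to 15 days after treatment in the greenhouse. Compounds had been added to paddy water over soil flooded 3 cm deep at the plants' 2-leaf stage.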"}, "galium": {"test_system": "galium", "assay": "Test C pre-/postemergence herbicide test", "format": "in vivo, Galium aparine", "outline": "as §2"}, "johnsongrass": {"test_system": "johnsongrass", "assay": "Test C pre-/postemergence herbicide test", "format": "in vivo, Sorghum halepense", "outline": "as §2"}, "corn [2]": {"test_system": "corn", "assay": "Test C pre-/postemergence herbicide test", "format": "in vivo, Zea mays", "outline": "as §2"}, "foxtail, giant": {"test_system": "foxtail, giant", "assay": "Test C pre-/postemergence herbicide test", "format": "in vivo, Setaria faberii", "outline": "as §2"}, "[3]": {"conditions": "Preemergence, 125 g ai/ha, visual rating on 0 to 100 scale (0 no effect, 100 complete control)"}, "[4]": {"conditions": "Postemergence, 31 g ai/ha, scale 0 (no effect) to 100 (complete control)"}, "[5]": {"conditions": "Postemergence, 62 g ai/ha, scale 0 to 100 (0 no effect, 100 complete control)"}, "[6]": {"conditions": "Postemergence, 125 g ai/ha, scale 0 to 100 (0 no effect, 100 complete control)"}, "[7]": {"conditions": "Postemergence, 250 g ai/ha, scale 0 to 100 (0 no effect, 100 complete control)"}, "[8]": {"conditions": "Preemergence, 31 g ai/ha, scale 0 to 100, 0 is no effect and 100 is complete control"}, "[9]": {"conditions": "Preemergence, 62 g ai/ha, scale 0 to 100"}, "[10]": {"conditions": "Preemergence, 125 g ai/ha, scale 0 to 100 (0 no effect, 100 complete control)"}}, "note": "Like-named read-outs stand apart in the source and are kept apart here."}
{"smiles": "O=C1NCC(c2ccc(C(F)(F)F)cc2)C1C(=O)Nc1cccc(F)c1F", "note": "(centres unmarked) [Compound 80, N-(2,3-difluorophenyl)-2-oxo-4-[4-(trifluoromethyl)phenyl]-3-pyrrolidinecarboxamide]", "values": [{"measurement": "Foxtail, Giant plant response rating", "setting": "giant foxtail; [3]", "result": 90}, {"measurement": "pest or weed control at 125 g/ha", "setting": "giant foxtail; Setaria faberi, post-emergence, 240 h, Postemergence, 125 g ai/ha, 0 to 100 scale, 0 no effect, 100 complete control, read-out: Plant response rating, Foxtail, Giant", "result": 80, "unit": "%"}, {"measurement": "pest or weed control at 500 g/ha", "setting": "giant foxtail; Setaria faberi, post-emergence, 240 h, Postemergence, 0 to 100 scale (0 no effect, 100 complete control), read-out: Plant response rating, Foxtail, Giant", "result": 80, "unit": "%"}, {"measurement": "pest or weed control at 500 g/ha", "setting": "giant foxtail; Setaria faberi, pre-emergence, 240 h, preemergence, 0 to 100 scale, read-out: Plant response rating, Foxtail, Giant", "result": 90, "unit": "%"}, {"measurement": "Plant response rating, Ragweed", "setting": "ragweed; 31 g ai/ha, scale 0 (no effect) to 100 (complete control)", "result": 30}, {"measurement": "Plant response rating, Ragweed", "setting": "ragweed; 62 g ai/ha, scale 0 to 100 (0 no effect, 100 complete control)", "result": 30}, {"measurement": "Plant response rating, Ragweed", "setting": "ragweed; 125 g ai/ha, scale 0 to 100 (0 no effect, 100 complete control)", "result": 30}, {"measurement": "Plant response rating, Ragweed", "setting": "ragweed; 250 g ai/ha, scale 0 to 100 (0 no effect, 100 complete control)", "result": 30}, {"measurement": "Wheat plant response rating", "setting": "wheat; [3]", "result": 0}, {"measurement": "plant injury at 125 g/ha", "setting": "wheat; Triticum aestivum, post-emergence, 240 h, Postemergence, 125 g ai/ha, 0 to 100 scale, 0 no effect, 100 complete control, read-out: Plant response rating, Wheat", "result": 40, "unit": "%"}, {"measurement": "plant injury at 500 g/ha", "setting": "wheat; Triticum aestivum, post-emergence, 240 h, Postemergence, 0 to 100 scale (0 no effect, 100 complete control), read-out: Plant response rating, Wheat", "result": 50, "unit": "%"}, {"measurement": "plant injury at 500 g/ha", "setting": "wheat; Triticum aestivum, pre-emergence, 240 h, preemergence, 0 to 100 scale, read-out: Plant response rating, Wheat", "result": 20, "unit": "%"}, {"measurement": "Plant response rating, Oilseed Rape", "setting": "oilseed rape; [4]", "result": 0}, {"measurement": "Plant response rating, Oilseed Rape", "setting": "oilseed rape; [5]", "result": 0}, {"measurement": "Plant response rating, Oilseed Rape", "setting": "oilseed rape; [6]", "result": 20}, {"measurement": "Plant response rating, Oilseed Rape", "setting": "oilseed rape; [7]", "result": 60}, {"measurement": "Oilseed Rape plant response rating", "setting": "oilseed rape; [8]", "result": 5}, {"measurement": "Plant response rating, Oilseed Rape", "setting": "oilseed rape; [9]", "result": 85}, {"measurement": "Plant response rating, Oilseed Rape", "setting": "oilseed rape; [10]", "result": 90}, {"measurement": "Plant response rating (scale of 0 to 100), Oilseed Rape", "setting": "oilseed rape; Preemergence, 250 g ai/ha", "result": 90}, {"measurement": "Plant response rating, Blackgrass", "setting": "blackgrass; [4]", "result": 0}, {"measurement": "Plant response rating, Blackgrass", "setting": "blackgrass; [5]", "result": 0}, {"measurement": "Plant response rating, Blackgrass", "setting": "blackgrass; [6]", "result": 0}, {"measurement": "Plant response rating, Blackgrass", "setting": "blackgrass; [7]", "result": 5}, {"measurement": "Blackgrass plant response rating", "setting": "blackgrass; [8]", "result": 30}, {"measurement": "Plant response rating, Blackgrass", "setting": "blackgrass; [9]", "result": 80}, {"measurement": "Plant response rating, Blackgrass", "setting": "blackgrass; [10]", "result": 85}, {"measurement": "Plant response rating (scale of 0 to 100), Blackgrass", "setting": "blackgrass; Preemergence, 250 g ai/ha", "result": 90}, {"measurement": "Corn plant response rating", "setting": "corn [1]; [3]", "result": 0}, {"measurement": "Corn plant response rating (crop injury, 0 = no effect, 100 = complete kill) at 125 g/ha", "setting": "corn [1]; Zea mays, post-emergence, 240 h, Postemergence, 125 g ai/ha, 0 to 100 scale, 0 no effect, 100 complete control", "result": 30, "unit": "%"}, {"measurement": "Corn plant response rating (crop injury, 0 = no effect, 100 = complete kill) at 500 g/ha", "setting": "corn [1]; Zea mays, post-emergence, 240 h, Postemergence, 0 to 100 scale (0 no effect, 100 complete control)", "result": 60, "unit": "%"}, {"measurement": "Corn plant response rating (crop injury, 0 = no effect, 100 = complete kill) at 500 g/ha", "setting": "corn [1]; Zea mays, pre-emergence, 240 h, preemergence, 0 to 100 scale", "result": 0, "unit": "%"}, {"measurement": "Plant response rating, Sedge, Umbrella", "setting": "sedge, umbrella", "result": 0}, {"measurement": "Plant response rating, Galium", "setting": "galium; [4]", "result": 5}, {"measurement": "Plant response rating, Galium", "setting": "galium; [5]", "result": 55}, {"measurement": "Plant response rating, Galium", "setting": "galium; [6]", "result": 65}, {"measurement": "Plant response rating, Galium", "setting": "galium; [7]", "result": 65}, {"measurement": "Galium plant response rating", "setting": "galium; [8]", "result": 5}, {"measurement": "Plant response rating, Galium", "setting": "galium; [9]", "result": 90}, {"measurement": "Plant response rating, Galium", "setting": "galium; [10]", "result": 90}, {"measurement": "Plant response rating (scale of 0 to 100), Galium", "setting": "galium; Preemergence, 250 g ai/ha", "result": 90}, {"measurement": "Plant response rating, Johnsongrass", "setting": "johnsongrass; [4]", "result": 5}, {"measurement": "Plant response rating, Johnsongrass", "setting": "johnsongrass; [5]", "result": 5}, {"measurement": "Plant response rating, Johnsongrass", "setting": "johnsongrass; [6]", "result": 5}, {"measurement": "Plant response rating, Johnsongrass", "setting": "johnsongrass; [7]", "result": 10}, {"measurement": "Johnsongrass plant response rating", "setting": "johnsongrass; [8]", "result": 0}, {"measurement": "Plant response rating, Johnsongrass", "setting": "johnsongrass; [9]", "result": 0}, {"measurement": "Plant response rating, Johnsongrass", "setting": "johnsongrass; [10]", "result": 30}, {"measurement": "Plant response rating (scale of 0 to 100), Johnsongrass", "setting": "johnsongrass; Preemergence, 250 g ai/ha", "result": 55}, {"measurement": "Plant response rating, Corn", "setting": "corn [2]; [4]", "result": 0}, {"measurement": "Plant response rating, Corn", "setting": "corn [2]; [5]", "result": 5}, {"measurement": "Plant response rating, Corn", "setting": "corn [2]; [6]", "result": 5}, {"measurement": "Plant response rating, Corn", "setting": "corn [2]; [7]", "result": 10}, {"measurement": "Corn plant response rating", "setting": "corn [2]; [8]", "result": 0}, {"measurement": "Plant response rating, Corn", "setting": "corn [2]; [9]", "result": 0}, {"measurement": "Plant response rating, Corn", "setting": "corn [2]; [10]", "result": 0}, {"measurement": "Plant response rating (scale of 0 to 100), Corn", "setting": "corn [2]; Preemergence, 250 g ai/ha", "result": 65}, {"measurement": "Plant response rating, Foxtail, Giant", "setting": "foxtail, giant; [4]", "result": 0}, {"measurement": "Plant response rating, Foxtail, Giant", "setting": "foxtail, giant; [5]", "result": 0}, {"measurement": "Plant response rating, Foxtail, Giant", "setting": "foxtail, giant; [6]", "result": 45}, {"measurement": "Plant response rating, Foxtail, Giant", "setting": "foxtail, giant; [7]", "result": 45}, {"measurement": "Foxtail, Giant plant response rating", "setting": "foxtail, giant; [8]", "result": 90}, {"measurement": "Plant response rating, Foxtail, Giant", "setting": "foxtail, giant; [9]", "result": 95}, {"measurement": "Plant response rating, Foxtail, Giant", "setting": "foxtail, giant; [10]", "result": 98}, {"measurement": "Plant response rating (scale of 0 to 100), Foxtail, Giant", "setting": "foxtail, giant; Preemergence, 250 g ai/ha", "result": 98}]}
